According to PubChem BioAssay (NCI):
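Protocol summary: plate cells (96-well), add compound at 5 concentrations, incubate 48 h, interpolate endpoints linearly. Here, GI50 denotes the concentration required for 50% inhibition of growth. TGI: concentration producing complete growth inhibition.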

Legend:
Test in all cases: NCI tumour cell line growth inhibition, 48 h
SNB-75 CNS = tested on: SNB-75 CNS
UACC-62 melanoma = tested on: UACC-62 melanoma
SK-MEL-2 melanoma = tested on: SK-MEL-2 melanoma
SNB-19 CNS = tested on: SNB-19 CNS
HCC-2998 colon = tested on: HCC-2998 colon
SF-268 CNS = tested on: SF-268 CNS
CCRF-CEM leukemia = tested on: CCRF-CEM leukemia
LOX IMVI melanoma = tested on: LOX IMVI melanoma
HOP-92 NSCLC = tested on: HOP-92 NSCLC
UACC-257 melanoma = tested on: UACC-257 melanoma

Row | SMILES | GI50 (SNB-75 CNS) [nM] | TGI (SNB-75 CNS) [µM] | GI50 (UACC-62 melanoma) [nM] | TGI (UACC-62 melanoma) [µM] | GI50 (SK-MEL-2 melanoma) [nM] | TGI (SK-MEL-2 melanoma) [µM] | GI50 (SNB-19 CNS) [µM] | TGI (SNB-19 CNS) [µM] | GI50 (HCC-2998 colon) [µM] | TGI (HCC-2998 colon) [µM] | GI50 (SF-268 CNS) [µM] | TGI (SF-268 CNS) [µM] | GI50 (CCRF-CEM leukemia) [nM] | TGI (CCRF-CEM leukemia) [µM] | GI50 (LOX IMVI melanoma) [nM] | TGI (LOX IMVI melanoma) [µM] | GI50 (HOP-92 NSCLC) [nM] | TGI (HOP-92 NSCLC) [µM] | GI50 (UACC-257 melanoma) [µM] | TGI (UACC-257 melanoma) [µM]
1 | COC12C=C/C(=C(/C(=O)OCc3cncnc3)C(=O)CCCCCCCCC3(OC)C=C/C(=C(/C(=O)OCc4cncnc4)C(=O)CCCCCCCC1)O3)O2 | 1190 | 6.84 | 533 | 1.21 | 1130 | 18.1 | 0.458 | > 50 | 0.821 | 1.61 | 0.312 | 4 | 196 | 3.79 | 155 | 0.524 | 1000 | 2.18 | 0.937 | 2.94
2 | COc1cc(/C=C\c2cc(OC)c(OC)c(OC)c2)cc(NC(=O)/C=C/c2cc(OC)c(OC)c(OC)c2)c1OC | 1820 | > 100 | 2190 | > 100 | 2690 | 9.77 | 48.6 | > 100 | > 100 | > 100 | > 100 | > 100 | 2670 | > 100 | 4510 | > 100 | 4680 | > 100 | 10.1 | > 100
3 | N#CC1(C#N)C2(c3ccccc3)OC(c3ccccc3)(c3cc4ccccc4cc32)C1(C#N)C#N |  | 30.1 |  | 37 |  | 37.9 |  | 32.2 |  | 33.8 |  | 39.5 |  | 3.29 |  | 11.1 |  | 7.05 |  | > 54.2
4 | CCCCON(OC(=O)c1ccc2ccccc2c1)C(=O)c1ccccc1 | 86200 | > 100 | > 100000 | > 100 | > 100000 | > 100 | > 100 | > 100 | > 100 | > 100 | > 100 | > 100 | 21400 | 57.3 | 25300 | 72 | 44800 | > 100 | > 100 | > 100
5 | O=C1C(Cl)=C(Nc2cccc(Cl)c2)C(=O)N1Cc1ccc(Cl)cc1 | 1480 | 14.6 | 779 | 4.68 | 2200 |  | 4.06 | 33 | 1.16 | 4.72 | 1.41 | 19.3 | 318 | > 19.8 | 408 | 8.49 | 1300 | 4.96 | 6.39 | 28.2
6 | O=C(COc1ccc(Cl)cc1)N1N=C(c2ccc(Cl)cc2)CC1(O)c1ccccc1 (stereo not drawn) |  | > 72.7 |  | 41.6 |  | 80.7 |  | > 100 |  | > 100 |  | > 100 |  | > 100 |  | 26.6 |  | 44.1 |  | 44.3
7 | Oc1c(-c2nnc(-c3ccccc3Cl)o2)sc2nnc(-c3ccccc3)c(-c3ccccc3)c12 | 6940 | > 100 | 2640 | 9.49 | 3230 | 15.7 | 4.37 | > 100 | 5.05 | > 100 | 6.27 | > 100 | 1430 | > 100 | 2550 | 21.8 | 1810 |  | 8.09 | 62.7
